“Also recorded” adds a separate entry of the source.
How the values were obtained:
G. vaginalis 14018 [1] = experiment: Biofilm formation of G. vaginalis 14018 in polystyrene plates (CFU assay); type: cell-based, Gardnerella vaginalis; conditions: for effect on (proportional) biofilm formation, in words: G. vaginalis 14018, 24 hour biofilms, NYCIII media; for reduction of biofilm formation: G. vaginalis 14018, NYCIII media, anaerobic, 24 h, 0.2 wt %
G. vaginalis 14018 [2] = experiment: Total growth of G. vaginalis 14018 (CFU assay); type: cell-based, Gardnerella vaginalis; conditions: for effect on total growth, in words: G. vaginalis 14018, NYCIII media (contains 1% glucose), soluble additive; for effect on growth in media without glucose, in words: G. vaginalis 14018, NYCIII media without glucose (data not shown); for suppression of growth: G. vaginalis 14018, glucose-rich NYCIII media, 0.2 wt % soluble monosaccharide
[3] = test system: Gardnerella vaginalis 49145; experiment: Biofilm formation of G. vaginalis 49145 (CFU assay); type: cell-based
[4] = test system: Gardnerella vaginalis 49145; experiment: Total growth of G. vaginalis 49145 (CFU assay); type: cell-based; conditions: G. vaginalis 49145, glucose-rich media
[5] = test system: Gardnerella vaginalis ATCC 14018 mature biofilms; experiment: Disruption of established G. vaginalis biofilms (CFU of biofilm and supernatant fractions); type: cell-based; conditions: for viable cell counts in supernatant / biofilm fractions, in words: pre-established 24 h biofilms, 24 h treatment
Description: Gardnerella vaginalis 14018 ATCC strain was obtained from ATCC. Salivary MUC5B mucin was isolated and purified as described previously. Galactose and D-Fucose were obtained from Sigma-Aldrich. AnaeroPacks were purchased from VWR. Prior to the experiment, MUC5B mucin was weighed out and solubilized to desired concentration on a shaker overnight. To establish mature biofilms, an overnight preculture of Gardnerella vaginalis ATCC 14018 was diluted 1:20 into fresh NYC III medium with 1% glucose and incubated at 37° C. in the anaerobic chamber for 24 h. Before adding fresh solutions, a set of triplicate wells was sacrificed to quantify cell counts in supernatant and biofilm fraction at the 24 h timepoint. The spent supernatant was gently drained from the rest of the wells and fresh medium or mucin/monosaccharide solutions in medium were added on top of the bacterial biomass. Plate was gently rocked (100 rpm) for 24 h in the anaerobic atmosphere (generated with AnaeroPack, Mitsubishi in the airtight container) in the 37° C. incubator. After 24 h, the supernatant was removed into a separate plate and the biofilms were washed twice with […], sterile phosphate-buffer saline (PBS) and washes were combined with the supernatant (=supernatant fraction). Another […], of PBS was added to the biofilms, each well was vigorously scraped with P20 tip for 20 s and scraped biomass pipetted up and down to homogenize the solution (=biofilm fraction). Both supernatant and biofilm solutions were serially diluted, plated on BHI-agar (BHI=brain-heart infusion, 1.5% agar) and incubated in the anaerobic chamber 37° C. incubator. Colonies were counted after ˜48 h.

[6] = test system: Gardnerella vaginalis mature biofilms; experiment: Minimum biofilm eradication assay with metronidazole; type: cell-based; conditions: 0.2 wt % monosaccharide with metronidazole concentration series, established biofilms, 24 h
Description: Mature biofilms of Gardnerella vaginalis were established as described above. On a separate plate serial dilution of metronidazole alone or in combination with 0.2 wt % Gal/D-Fuc were prepared in NYC III 1% Glc medium. Negative controls (no metronidazole) were also included on the plate. After spent supernatant was drained from mature biofilms, 100 μL, of metronidazole/metronidazole-monosaccharide or negative controls solutions were added to the biofilms and plate was rocked (100 rpm) for 24 h in the anaerobic atmosphere (generated with AnaeroPack, Mitsubishi in the airtight container) in the 37° C. incubator. After 24 h incubation, the CFUs of supernatant and biofilm fractions were quantified as described in the biofilm disruption experiment.

| Compound | effect on (proportional) biofilm formation, in words (G. vaginalis 14018 [1]) | reduction of biofilm formation (G. vaginalis 14018 [1]) | effect on total growth, in words (G. vaginalis 14018 [2]) | effect on biofilm formation, in words [3] | viable cell counts in supernatant / biofilm fractions, in words [5] | also measured |
| --- | --- | --- | --- | --- | --- | --- |
| C[C@@H](O)[C@H](O)[C@H](O)[C@@H](O)C=O [D-fucose, 6-deoxy-D-galactose] | inhibit biofilm formation | 72% | limited G. vaginalis growth in glucose-rich media; also recorded: reduced the overall growth | reduction of biofilm formation | reduction in viable cells in both biofilm and supernatant fractions | effect on (proportional) biofilm formation, in words (G. vaginalis 14018 [1]; listed as D-Fuc): significantly reduced proportional biofilm formation; effect on growth in media without glucose, in words (G. vaginalis 14018 [2]): did not diminish; suppression of growth (G. vaginalis 14018 [2]): 75%; effect on total growth, in words [4]: suppressed the growth; effect in combination with metronidazole on biofilm eradication, in words ([6]; listed as D-Fuc): synergistic effect; effect in combination with metronidazole on biofilm eradication, in words ([6]; listed as D-Fucose): potentiate the action of antibiotic metronidazole |
| CC(=O)N[C@H]1[C@H]([C@H](O)[C@H](O)CO)OC(O)(C(=O)O)C[C@@H]1O (stereo partly drawn) [NeuNAc, N-acetyl D-neuraminic acid, reference compound] | only galactose was able to reduce proportional biofilm formation | – | – | – | – | – |
| CC(=O)N[C@H]1C(O)O[C@H](CO)[C@H](O)[C@@H]1O (stereo partly drawn) [GalNAc, N-acetyl D-galactosamine, reference compound] | only galactose was able to reduce proportional biofilm formation | – | have no effect | – | – | – |
| CC(=O)N[C@H]1C(O)O[C@H](CO)[C@@H](O)[C@@H]1O (stereo partly drawn) [GlcNAc, N-acetyl D-glucosamine, reference compound] | only galactose was able to reduce proportional biofilm formation | – | have no effect | – | – | – |
| MUC5B: mucin glycoprotein, predominant in cervicovaginal fluid, purified from pooled human saliva and reconstituted into gels | limited its biofilm formation, toxin production, and killing of endocervical cells; also recorded: reduces relative biofilm formation | 76% | did not limit the growth of the bacteria; also recorded: did not have any detrimental impact | reduction of biofilm formation | increase in the cell counts in the supernatant | effect on (proportional) biofilm formation, in words (G. vaginalis 14018 [1]; listed as mucin): inhibit biofilm formation; disruption of established biofilms, in words ([5]; pre-established biofilms): disrupt established biofilms |
| O=C[C@H](O)[C@@H](O)[C@@H](O)[C@H](O)CO [galactose, D-galactose] | inhibit biofilm formation; also recorded: significantly reduced proportional biofilm formation | 85% | limited G. vaginalis growth in glucose-rich media; also recorded: reduced the overall growth | reduction of biofilm formation | reduction in viable cells in both biofilm and supernatant fractions | effect on growth in media without glucose, in words (G. vaginalis 14018 [2]): did not diminish; suppression of growth (G. vaginalis 14018 [2]): 90%; effect in combination with metronidazole on biofilm eradication, in words [6]: potentiate the action of antibiotic metronidazole; effect in combination with metronidazole on biofilm eradication, in words ([6]; listed as Gal): synergistic effect |
| C[C@H](O)[C@@H](O)[C@@H](O)[C@H](O)C=O [L-Fuc, L-fucose, reference compound] | only galactose was able to reduce proportional biofilm formation | – | – | – | – | – |
